Experimental data published in PubChem BioAssay AID1963433 (Molecular Pharmacology Branch, DTP, NCI, 2024).

Tested on: 772245-204-R-J1-PDC complex spheroid growth
Assay: Anticancer human tumor 772245-204-R-J1-PDC patient-derived rhabdomyosarcoma cell line growth inhibition [Asc]
Details: for IC50: curve of first compound; for viability, T/C: stronger effect = lower value; active means viability on the fitted dose curve at most 10% of control; inactive means the rest
Method in brief: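 Complex solid-tumor spheroids incorporating human endothelial and mesenchymal stem cells received single agents or combinations over half-log dilution ranges anchored to clinical Cmax.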

[1] = second compound 0.1 µM, first compound 0.0316 µM
[2] = second compound 0.1 µM, first compound 0.1 µM
[3] = second compound 0.1 µM, first compound 0.316 µM
[4] = second compound 0.1 µM, first compound 1 µM
[5] = second compound 0.1 µM, first compound 3.16 µM
[6] = second compound 0.1 µM, first compound 10 µM
[7] = second compound 0.316 µM, first compound 0.0316 µM
[8] = second compound 0.316 µM, first compound 0.1 µM
[9] = second compound 0.316 µM, first compound 0.316 µM
[10] = second compound 0.316 µM, first compound 1 µM
[11] = second compound 0.316 µM, first compound 3.16 µM
[12] = second compound 0.316 µM, first compound 10 µM
[13] = second compound 1 µM, first compound 0.0316 µM
[14] = second compound 1 µM, first compound 0.1 µM
[15] = second compound 1 µM, first compound 0.316 µM
[16] = second compound 1 µM, first compound 1 µM
[17] = second compound 1 µM, first compound 3.16 µM
[18] = second compound 1 µM, first compound 10 µM
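Further: compound exposure lasted seven days.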
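Wherever viability, T/C is given: 100% = DMSO vehicle control viability.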

C=C(F)C(=O)N1CCN(c2nc(OCC3CCCN3C)nc3c2CCN(c2cccc4cccc(Cl)c24)C3)CC1CC#N (stereo not given) + CNC(C)C(=O)NC1CN(S(=O)(=O)c2cccc(S(=O)(=O)N3CCC4CCC(C(=O)NC(c5ccccc5)c5ccccc5)N4C(=O)C(NC(=O)C(C)NC)C3)c2)CCC2CCC(C(=O)NC(c3ccccc3)c3ccccc3)N2C1=O
inactive: viability, T/C (second compound 0.01 µM, first compound 0.0316 µM) 98.8% | viability, T/C (second compound 0.01 µM, first compound 0.1 µM) 102% | viability, T/C (second compound 0.01 µM, first compound 0.316 µM) 91.3% | viability, T/C (second compound 0.01 µM, first compound 1 µM) 108% | viability, T/C (second compound 0.01 µM, first compound 3.16 µM) 87.2% | viability, T/C (second compound 0.0316 µM, first compound 0.0316 µM) 112% | viability, T/C (second compound 0.0316 µM, first compound 0.1 µM) 105% | viability, T/C (second compound 0.0316 µM, first compound 0.316 µM) 97.5% | viability, T/C (second compound 0.0316 µM, first compound 1 µM) 99.7% | viability, T/C (second compound 0.0316 µM, first compound 3.16 µM) 97.6% | viability, T/C (second compound 0.0316 µM, first compound 10 µM) 18% | viability, T/C [1] 100% | viability, T/C [2] 91.1% | viability, T/C [3] 95% | viability, T/C [4] 94.4% | viability, T/C [5] 79.2% | viability, T/C [7] 98% | viability, T/C [8] 94.1% | viability, T/C [9] 84.4% | viability, T/C [10] 105% | viability, T/C [11] 80.2% | viability, T/C [13] 93.5% | viability, T/C [14] 106% | viability, T/C [15] 87.1% | viability, T/C [16] 82.9% | viability, T/C [17] 81.4%
4.84 µM: IC50 (second compound 0.1 µM) | IC50 (second compound 1 µM)
5.51 µM: IC50 (second compound 0.01 µM)
6.3 µM: IC50 (second compound 0.0316 µM)
4.88 µM: IC50 (second compound 0.316 µM)
active: viability, T/C (second compound 0.01 µM, first compound 10 µM) 9.53% | viability, T/C [6] 0.25% | viability, T/C [12] 0.26% | viability, T/C [18] 0.98%

CCN1C(C(=O)NC23CCC(C(=O)O)(CC2)CC3)C(c2cccc(Cl)c2F)C2(C(=O)Nc3cc(Cl)ccc32)C12CCCCC2 (stereo not given) + CNC(C)C(=O)NC1CN(S(=O)(=O)c2cccc(S(=O)(=O)N3CCC4CCC(C(=O)NC(c5ccccc5)c5ccccc5)N4C(=O)C(NC(=O)C(C)NC)C3)c2)CCC2CCC(C(=O)NC(c3ccccc3)c3ccccc3)N2C1=O
> 3 µM: IC50 (second compound 0.01 µM) | IC50 (second compound 0.0316 µM) | IC50 (second compound 0.1 µM) | IC50 (second compound 0.316 µM) | IC50 (second compound 1 µM)
inactive: viability, T/C (second compound 0.01 µM, first compound 0.00949 µM) 103% | viability, T/C (second compound 0.01 µM, first compound 0.03 µM) 106% | viability, T/C (second compound 0.01 µM, first compound 0.0949 µM) 111% | viability, T/C (second compound 0.01 µM, first compound 0.3 µM) 96.1% | viability, T/C (second compound 0.01 µM, first compound 0.949 µM) 80.3% | viability, T/C (second compound 0.01 µM, first compound 3 µM) 77.4% | viability, T/C (second compound 0.0316 µM, first compound 0.00949 µM) 97.7% | viability, T/C (second compound 0.0316 µM, first compound 0.03 µM) 105% | viability, T/C (second compound 0.0316 µM, first compound 0.0949 µM) 98.2% | viability, T/C (second compound 0.0316 µM, first compound 0.3 µM) 90.9% | viability, T/C (second compound 0.0316 µM, first compound 0.949 µM) 93.3% | viability, T/C (second compound 0.0316 µM, first compound 3 µM) 75.7% | viability, T/C (second compound 0.1 µM, first compound 0.00949 µM) 97.9% | viability, T/C (second compound 0.1 µM, first compound 0.03 µM) 102% | viability, T/C (second compound 0.1 µM, first compound 0.0949 µM) 88.5% | viability, T/C (second compound 0.1 µM, first compound 0.3 µM) 91% | viability, T/C (second compound 0.1 µM, first compound 0.949 µM) 82.2% | viability, T/C (second compound 0.1 µM, first compound 3 µM) 65.2% | viability, T/C (second compound 0.316 µM, first compound 0.00949 µM) 96.6% | viability, T/C (second compound 0.316 µM, first compound 0.03 µM) 96.4% | viability, T/C (second compound 0.316 µM, first compound 0.0949 µM) 98.6% | viability, T/C (second compound 0.316 µM, first compound 0.3 µM) 92.3% | viability, T/C (second compound 0.316 µM, first compound 0.949 µM) 86.8% | viability, T/C (second compound 0.316 µM, first compound 3 µM) 105% | viability, T/C (second compound 1 µM, first compound 0.00949 µM) 103% | viability, T/C (second compound 1 µM, first compound 0.03 µM) 105% | viability, T/C (second compound 1 µM, first compound 0.0949 µM) 96.2% | viability, T/C (second compound 1 µM, first compound 0.3 µM) 89.1% | viability, T/C (second compound 1 µM, first compound 0.949 µM) 86.4% | viability, T/C (second compound 1 µM, first compound 3 µM) 76.3%

O=C(c1cc(Cc2n[nH]c(=O)c3ccccc23)ccc1F)N1CCN(C(=O)C2CC2)CC1 + Cc1c(S(C)(=O)=O)c(-c2cc(F)cc(N3CCN(c4ccc(NS(=O)(=O)c5ccc(NC(CCN6CCC(C(=O)OCCCP(=O)(O)O)CC6)CSc6ccccc6)c(S(=O)(=O)C(F)(F)F)c5)cc4)CC3)c2)c(-c2ccc(Cl)cc2)n1C(C)C
active: viability, T/C [18] 6.31% | viability, T/C (second compound 3.16 µM, first compound 10 µM) 2.64% | viability, T/C (second compound 10 µM, first compound 10 µM) 6.24%
inactive: viability, T/C [1] 76.8% | viability, T/C [2] 81.5% | viability, T/C [3] 83.2% | viability, T/C [4] 63.6% | viability, T/C [5] 52.7% | viability, T/C [6] 34.3% | viability, T/C [7] 62.8% | viability, T/C [8] 50.5% | viability, T/C [9] 44.2% | viability, T/C [10] 54.5% | viability, T/C [11] 28.5% | viability, T/C [12] 10.6% | viability, T/C [13] 52.1% | viability, T/C [14] 46.8% | viability, T/C [15] 46.9% | viability, T/C [16] 30.7% | viability, T/C [17] 12.8% | viability, T/C (second compound 3.16 µM, first compound 0.0316 µM) 26.3% | viability, T/C (second compound 3.16 µM, first compound 0.1 µM) 36.3% | viability, T/C (second compound 3.16 µM, first compound 0.316 µM) 33.9% | viability, T/C (second compound 3.16 µM, first compound 1 µM) 22% | viability, T/C (second compound 3.16 µM, first compound 3.16 µM) 6.64% | viability, T/C (second compound 10 µM, first compound 0.0316 µM) 34.8% | viability, T/C (second compound 10 µM, first compound 0.1 µM) 47.2% | viability, T/C (second compound 10 µM, first compound 0.316 µM) 33.8% | viability, T/C (second compound 10 µM, first compound 1 µM) 17.4% | viability, T/C (second compound 10 µM, first compound 3.16 µM) 13.3%
< 0.0316 µM: IC50 (second compound 3.16 µM) | IC50 (second compound 10 µM)
0.0445 µM: IC50 (second compound 1 µM)
3.27 µM: IC50 (second compound 0.1 µM)
0.435 µM: IC50 (second compound 0.316 µM)
